Measurements published in patent US8445468B2, “(20S,22E)-2-methylene-19-nor-22-ene-1α,25-dihydroxyvitamin D3” (Wisconsin Alumni Research Foundation, priority 2009, dated 2013).
Where two headings read alike, the source gives them in different places.

What was measured:
[1] = target: T1, full-length recombinant rat vitamin D receptor (Rattus norvegicus, UniProt P13053); experiment: Vitamin D receptor binding, competition with [3H]-1,25(OH)2D3; conditions: FIG. 1
T1 construct: Full-length recombinant rat receptor was expressed in E. coli BL21 (DE3) Codon Plus RIL cells; histidine tag (C); made in house; host or cells: E. coli BL21 (DE3) Codon Plus RIL
T1 sequence (P13053 1-423): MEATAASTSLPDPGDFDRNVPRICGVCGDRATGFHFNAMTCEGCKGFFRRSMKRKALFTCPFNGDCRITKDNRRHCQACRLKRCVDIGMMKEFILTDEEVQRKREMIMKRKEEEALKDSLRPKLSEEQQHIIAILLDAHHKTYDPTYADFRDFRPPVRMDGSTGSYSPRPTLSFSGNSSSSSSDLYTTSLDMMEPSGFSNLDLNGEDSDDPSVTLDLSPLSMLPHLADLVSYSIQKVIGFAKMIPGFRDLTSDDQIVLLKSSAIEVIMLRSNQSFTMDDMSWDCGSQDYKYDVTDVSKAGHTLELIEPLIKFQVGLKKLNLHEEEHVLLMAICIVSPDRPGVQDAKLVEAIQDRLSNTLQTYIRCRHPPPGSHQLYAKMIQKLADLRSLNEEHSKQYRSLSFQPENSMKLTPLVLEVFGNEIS
Experimental: Full-length recombinant rat receptor was expressed in E. coli BL21 (DE3) Codon Plus RIL cells and purified to homogeneity using two different column chromatography systems. The first system was a nickel affinity resin that utilizes the C-terminal histidine tag on this protein. The protein that was eluted from this resin was further purified using ion exchange chromatography (S-Sepharose Fast Flow). Aliquots of the purified protein were quick frozen in liquid nitrogen and stored at −80° C. until use. For use in binding assays, the protein was diluted in TEDK50 (50 mM Tris, 1.5 mM EDTA, pH7.4, 5 mM DTT, 150 mM KCl) with 0.1% Chaps detergent. The receptor protein and ligand concentration were optimized such that no more than 20% of the added radiolabeled ligand was bound to the receptor.
Radiolabeled and unlabeled ligands were added to 100 mcl of the diluted protein at a final ethanol concentration of ≦10%, mixed and incubated overnight on ice to reach binding equilibrium. The following day, 100 mcl of hydroxylapatite slurry (50%) was added to each tube and mixed at 10-minute intervals for 30 minutes. […] Total binding was determined from the tubes containing only radiolabeled ligand.

[2] = tested on: vitamin D-deficient rats; experiment: Intestinal calcium transport (everted gut sac method); type: in vivo, rat; conditions: FIG. 5
Experimental: (§1) Male, weanling Sprague-Dawley rats were placed on Diet 11 (0.47% Ca) diet +AEK oil for one week followed by Diet 11 (0.02% Ca)+AEK oil for 3 weeks. The rats were then switched to a diet containing 0.47% Ca for one week followed by two weeks on a diet containing 0.02% Ca. Dose administration began during the last week on 0.02% calcium diet. Four consecutive ip doses were given approximately 24 hours apart. Twenty-four hours after the last dose, blood was collected from the severed neck and the concentration of serum calcium determined as a measure of bone calcium mobilization. The first 10 cm of the intestine was also collected for intestinal calcium transport analysis using the everted gut sac method.

[3] = tested on: HL-60 cells; experiment: HL-60 differentiation (nitro blue tetrazolium reduction); type: cell-based, human; conditions: FIG. 2; for EC50: differentiation of HL-60 cells into monocytes, read-out: EC50, HL-60 cell differentiation
Experimental: The study drugs were dissolved in ethanol and the concentrations determined using UV spectrophotometry. Serial dilutions were prepared so that a range of drug concentrations could be tested without changing the final concentration of ethanol (≦0.2%) present in the cell cultures.
Human promyelocytic leukemia (HL60) cells were grown in RPMI-1640 medium containing 10% fetal bovine serum. The cells were incubated at 37° C. in the presence of 5% CO2.
HL60 cells were plated at 1.2×10^5 cells/ml. Eighteen hours after plating, cells in duplicate were treated with drug. Four days later, the cells were harvested and a nitro blue tetrazolium reduction assay was performed (Collins et al., 1979; J. Exp. Med. 149:969-974). The percentage of differentiated cells was determined by counting a total of 200 cells and recording the number that contained intracellular black-blue formazan deposits. Verification of differentiation to monocytic cells was determined by measuring phagocytic activity (data not shown).

[4] = tested on: 24-hydroxylase (24Ohase) gene promoter; experiment: In vitro transcription assay, luciferase reporter in ROS 17/2.8 (bone) cells; type: cell-based; conditions: FIG. 3; for EC50: ROS 17/2.8 cells, 16 h after dosing, read-out: EC50, transcriptional activity in bone cells (24-hydroxylase gene)
Experimental: Transcription activity was measured in ROS 17/2.8 (bone) cells that were stably transfected with a 24-hydroxylase (24Ohase) gene promoter upstream of a luciferase reporter gene (Arbour et al., 1998). Cells were given a range of doses. Sixteen hours after dosing the cells were harvested and luciferase activities were measured using a luminometer.
RLU=relative luciferase units.

[5] = tested on: vitamin D-deficient rats; experiment: Bone calcium mobilization (serum calcium); type: in vivo, rat; conditions: FIG. 4; for serum calcium (bone calcium mobilization): 260 pmol/day ip for 4 consecutive days, rats on low calcium diet (0.02%); for bone calcium mobilization activity (in words): vitamin D-deficient rats, low calcium diet
Experimental: as §1

affinity to the nuclear vitamin D receptor compared to 1,25-(OH)2D3 (in words) ([1]; full length recombinant rat VDR) | Ki ([1]; full-length recombinant rat vitamin D receptor, read-out: Ki, competition with [3H]-1,25(OH)2D3 for binding to VDR) [nM] | EC50 ([3]; Homo sapiens) [nM] | SMILES | intestinal calcium transport activity compared to 1,25(OH)2D3 ([2]; 32 pmol/day for 4 consecutive days) | intestinal calcium transport, dose dependence (in words) ([2]; vitamin D-deficient rats) | potency on HL-60 cell differentiation relative to 1,25(OH)2D3 ([3]; fold more potent than 1,25(OH)2D3) | EC50 [4] [nM] | potency in increasing transcription of the 24-hydroxylase gene relative to 1,25(OH)2D3 ([4]; bone cells, fold more potent than 1,25(OH)2D3) | serum calcium (bone calcium mobilization) [5] [mg/dL] | bone calcium mobilization activity (in words) [5] | EC50 [3] [nM]
same affinity | 0.06 | 0.1 | C=C1[C@H](O)CC(=C/C=C2\CCC[C@]3(C)[C@@H]([C@@H](C)/C=C/CC(C)(C)O)CC[C@@H]23)C[C@H]1O [Compound N-23, (20S,22E)-2-Methylene-19-nor-22-ene-1α,25-dihydroxyvitamin D3] | less activity | dose dependent manner | about 10 times | 0.02 | about 10 times | 6.8 | slightly more bone calcium mobilization activity | –
– | – | – | C=C1/C(=C\C=C2/CCC[C@]3(C)[C@@H]([C@H](C)CCCC(C)(C)O)CC[C@@H]23)C[C@@H](O)C[C@@H]1O [1,25(OH)2D3, 1α,25-dihydroxyvitamin D3] | – | – | – | 0.2 | – | 6.1 | increased serum calcium levels at all dosages | 2
